Results taken from patent US9593097B2, “Axl inhibitors” (Pfizer Inc., priority 2014, dated 2017).

What follows are compounds tested against Axl phosphorylation in 293MSR-AxlWT6 cells (Homo sapiens (Human), UniProt P30530) (assay: Cellular Axl phosphorylation ELISA assay (Gas6-stimulated 293MSR-AxlWT6 cells)). Settings: Table 4A, read-out: CELL AXL IC50.
Format: cell-based
Method: Cellular Axl Phosphorylation ELISA Assay
After 6-7 hrs in tissue culture incubator at 37° C. 5% CO2, medium was removed, serum-free medium was added (with 0.04% bovine serum albumin) and plates were returned to incubator where they remained overnight. […] Media was then removed and lysis buffer was added to wells and shaken at 4° C. for 30 min to generate protein lysates. Subsequently, phosphorylation of Axl was assessed by a sandwich ELISA method using a DuoSet IC Human Phospho-Axl ELISA assay kit (R&D System), an immobilized mouse anti-human Axl antibody and an anti-phospho-tyrosine-HRP antibody as a detection antibody. Antibody-coated plates were (a) incubated in presence of protein lysates at room temperature for 2 hrs, (b) washed seven times in 0.1% Tween 20 in PBS, (c) incubated with secondary antibody (a horseradish peroxidase-conjugated […]) for 2 hrs, (d) washed seven times again, (e) TMB peroxidase substrate (Bio-Rad) was added to initiate a colorimetric reaction and stopped by adding 0.2 N H2SO4, and (f) measured at OD 450 nm using a spectrophotometer. IC50 values were calculated by concentration-response curve fitting using a four-parameter analytic method and reported in μM.
For Table 4B, IC50 values were calculated by concentration-response curve fitting using a four-parameter analytic method and reported in nM.

Chain of Axl phosphorylation in 293MSR-AxlWT6 cells (P30530 26-894): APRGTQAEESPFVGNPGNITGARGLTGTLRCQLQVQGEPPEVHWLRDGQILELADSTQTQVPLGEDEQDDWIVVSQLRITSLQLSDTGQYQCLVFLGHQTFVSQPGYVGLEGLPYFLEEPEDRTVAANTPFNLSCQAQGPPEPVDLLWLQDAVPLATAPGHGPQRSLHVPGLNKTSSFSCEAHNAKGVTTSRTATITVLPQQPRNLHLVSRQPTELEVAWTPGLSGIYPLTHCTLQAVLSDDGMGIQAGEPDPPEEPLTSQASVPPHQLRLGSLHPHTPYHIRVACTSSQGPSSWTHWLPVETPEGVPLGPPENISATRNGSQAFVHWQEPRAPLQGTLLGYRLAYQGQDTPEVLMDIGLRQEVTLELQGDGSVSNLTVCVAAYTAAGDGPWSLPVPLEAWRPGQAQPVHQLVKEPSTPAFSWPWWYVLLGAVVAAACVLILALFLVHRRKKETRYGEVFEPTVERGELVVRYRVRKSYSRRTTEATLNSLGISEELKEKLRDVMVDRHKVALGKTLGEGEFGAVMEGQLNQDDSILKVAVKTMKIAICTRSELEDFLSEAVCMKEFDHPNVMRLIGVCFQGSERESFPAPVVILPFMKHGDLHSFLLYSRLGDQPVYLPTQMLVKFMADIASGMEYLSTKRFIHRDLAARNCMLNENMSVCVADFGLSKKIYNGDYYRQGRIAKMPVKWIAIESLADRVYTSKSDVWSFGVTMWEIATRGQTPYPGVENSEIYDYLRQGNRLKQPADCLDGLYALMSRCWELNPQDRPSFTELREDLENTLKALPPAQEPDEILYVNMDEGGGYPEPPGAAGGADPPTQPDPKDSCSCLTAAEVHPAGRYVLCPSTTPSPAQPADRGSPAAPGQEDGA

In order of falling IC50:
1. N#C[C@@H]1C[C@@H]1COc1nc(C(=O)NC(CCO)C(F)(F)F)cc(N2CCC(COc3cncnc3N)CC2)n1 (stereo partly drawn) [Example 63, 6-(4-{[(4-aminopyrimidin-5-yl)oxy]methyl}piperidin-1-yl)-2-{[(1S,2R)-2-cyanocyclopropyl]methoxy}-N-(1,1,1-trifluoro-4-hydroxybutan-2-yl)pyrimidine-4-carboxamide]  455 nM
2. CCNC(=O)c1nc(OCC2(C#N)CC2)nc(N2CCC(c3n[nH]c4ncccc34)CC2)n1 [Example 133, 4-(4-(1H-pyrazolo[3,4-b]pyridin-3-yl)piperidin-1-yl)-6-((1-cyanocyclopropyl)methoxy)-N-ethyl-1,3,5-triazine-2-carboxamide]  285 nM
3. N#CC1(COc2nc(C(=O)NCC(F)(F)F)nc(N3CCC(c4c[nH]c5nccnc45)CC3)n2)CC1 [Example 132, 4-(4-(5H-pyrrolo[2,3-b]pyrazin-7-yl)piperidin-1-yl)-6-((1-cyanocyclopropyl)methoxy)-N-(2,2,2-trifluoroethyl)-1,3,5-triazine-2-carboxamide]  231 nM
4. N#C[C@@H]1C[C@@H]1COc1nc(C(=O)NCC(F)(F)F)nc(N2CCC(c3ccc(N)c(C(N)=O)n3)CC2)n1 [Example 89, 4-[4-(5-amino-6-carbamoylpyridin-2-yl)piperidin-1-yl]-6-{[(1S,2R)-2-cyanocyclopropyl]methoxy}-N-(2,2,2-trifluoroethyl)-1,3,5-triazine-2-carboxamide]  134 nM
5. CS(=O)(=O)COc1cnc2[nH]nc(C3CCN(c4cc(C(=O)NC56CC(C5)C6)nc(OC[C@H]5C[C@H]5C#N)n4)CC3)c2c1 [Example 77, N-(bicyclo[1.1.1]pent-1-yl)-2-{[(1S,2R)-2-cyanocyclopropyl]methoxy}-6-(4-{5-[(methylsulfonyl)methoxy]-1H-pyrazolo[3,4-b]pyridin-3-yl}piperidin-1-yl)pyrimidine-4-carboxamide]  42.8 nM
6. N#C[C@@H]1C[C@@H]1COc1nc(C(=O)NC23CC(C2)C3)cc(N2CCC(COc3cncnc3N)C(F)(F)C2)n1 (single isomer, unassigned) [Example 62]  38.7 nM
7. CC(C)(C)NC(=O)c1cc(N2CCC(c3n[nH]c4ncncc34)CC2)nc(OC[C@H]2C[C@H]2C#N)n1 [Example 48, N-tert-butyl-2-{[(1S,2R)-2-cyanocyclopropyl]methoxy}-6-[4-(1H-pyrazolo[3,4-d]pyrimidin-3-yl)piperidin-1-yl]pyrimidine-4-carboxamide]  38.1 nM
8. CCNC(=O)c1cc(N2CCC(COc3cc(C#N)cnc3N)CC2)nc(O[C@H](C)COC)n1 [Example 21, 6-(4-{[(2-amino-5-cyanopyridin-3-yl)oxy]methyl}piperidin-1-yl)-N-ethyl-2-{[(2R)-1-methoxypropan-2-yl]oxy}pyrimidine-4-carboxamide]  37 nM
9. COC[C@@H](C)Oc1nc(C(=O)NCC(F)(F)F)cc(N2CCC(c3ccc(N)c(C(N)=O)n3)CC2)n1 [Example 6, 6-[4-(5-amino-6-carbamoylpyridin-2-yl)piperidin-1-yl]-2-{[(2R)-1-methoxypropan-2-yl]oxy}-N-(2,2,2-trifluoroethyl) pyrimidine-4-carboxamide]  29.1 nM
10. COC[C@@H](C)Oc1nc(C(=O)NC2CCC2)cc(N2CCC(c3ccc(N)c(C(N)=O)n3)CC2)n1 [Example 4, 6-[4-(5-amino-6-carbamoylpyridin-2-yl)piperidin-1-yl]-N-cyclobutyl-2-{[(2R)-1-methoxypropan-2-yl]oxy}pyrimidine-4-carboxamide]  2.83 nM
11. COC[C@@H](C)Oc1nc(C(=O)NC23CC(C2)C3)cc(N2CCC(COc3nc(C)cnc3N)CC2)n1 [Example 24, 6-(4-{[(3-amino-6-methylpyrazin-2-yl)oxy]methyl}piperidin-1-yl)-N-(bicyclo[1.1.1]pent-1-yl)-2-{[(2R)-1-methoxypropan-2-yl]oxy}pyrimidine-4-carboxamide]  1.92 nM
